Tested on: pERK in HCT-116 cells (KRAS G13D)
Assay: Phospho-ERK inhibition (AlphaLISA SureFire Ultra p-ERK 1/2), HCT116
Type: cell-based, human
Conditions: HCT116 cells; for HCT116 pERK Ymin %: Ymin in brackets
Description: All cancer cell lines (A375, A101D, A2058, RKO, HT29 SK-MEL 30, IPC298, HepG2, HCT-116, Lovo, SWV620, SW480, NCI-H358, NCI-H2122, Calu-6, NCIH2087, NCIH1755, NCIH1666 and Mewo) were obtained from ATCC and cultured in RPMI-1640 medium (Gibco) supplemented with 5% heat inactivated fetal bovine serum (FBS, Wisent) at 37° C. under 5% CO2. Cells were maintained in T175 flasks (Greiner). They were passaged by removing the culture medium, washing once in 10 mL of room temperature Phosphate Buffered Saline (PBS; Wisent) and incubating at 37° C. with 2 mL of 0.05% Trypsin (Thermo-Fisher). Trypsin was then inactivated by adding complete growth medium and the cells were then replated in a T175 culture dish at the appropriate dilution. All cell lines were routinely tested for mycoplasma contamination. Tissue type and mutational status of each cell line can be found in Table B.
AlphaLISA® SureFire® Ultra™ p-ERK 1/2 (Thr202/Tyr204) analysis was conducted on cells plated in 100 μL of complete RPMI-1640 growth medium in 96-well flat-bottomed transparent dishes (Costar) at a density indicated in Table C. Cells were maintained overnight at 37° C. under 5% CO2 before treatment with compounds' dilution series for one hour. The cell density in cells/cm^2 corresponds to cell number divided by the area of one well of a 96-well plate ([…]).
In a dilution series 100 μL/well of test substance dilution prepared in complete RPMI-1640 growth media was added to the cells. The dilution series is selected so that ten concentrations cover a range from 10 μM to 0.33 nM. If necessary the initial concentration of 10 μM is increased to 100 μM or lowered to 1 μM (as in the case of A375 and H1666 cells, which are generally more sensitive to the compounds) and further dilution is carried out accordingly. The final concentration of DMSO in the assay is set at 0.5%.
After treatment, media was removed and cells were lysed in 50 μL of 1× AlphaScreen Ultra Lysis Buffer (Perkin Elmer). The AlphaLISA® SureFire® Ultra™ p-ERK 1/2 (Thr202/Tyr2O4) (PerkinElmer) reactions were performed with 5 μL of cell lysate according to the manufacturer's specifications in 384-well proxyplates (Perkin Elmer) followed by overnight incubation of the reactions at room temperature in a humidified chamber. After completion of the reactions, the signals were recorded on an EnVision plate reader (Perkin Elmer) using built in AlphaLISA® settings.
The effect of each compound dilution on the pERK signal was expressed in % inhibition and calculated as follows. An internal 100% inhibition control ([…] trametinib, cat #HY-10999; MedChem Express; CAS #871700-17-3) was included in each plate and used as a measure of pERK background. First, the value obtained for trametinib was subtracted from each data point. The average of DMSO (vehicle) controls (set as 0% inhibition) was established and used to calculate % inhibition: % inhibition=100*(1-((pERK signalcompound)/(pERK signalDMSO)))
The ability of each compound to inhibit pERK signal was expressed as an IC50 value obtained by plotting the inhibition values for each data point of a dilution series and fitting the obtained curves using a log(agonist) versus response-variable slope (four parameters) function using GraphPadPrism (V7.0) or Dotmatics Screening Ultra platform.
When present, paradoxical pERK induction is inferred from the negative % inhibition values observed in the pERK IC50 curves of a compound.

[1] = class symbol before the bracket

Row | SMILES | IC50 (class symbol) | HCT116 pERK Ymin % | IC50 [1]
1 | CCN1CCN(S(=O)(=O)c2cn(-c3ccc4ncnc(Nc5c(F)ccc(NS(=O)(=O)c6cccc(F)c6C)c5F)c4n3)c3ccccc23)CC1 [Ex 396] | < 0.5 µM | – | –
2 | O=S(=O)(Nc1ccc(F)c(Nc2ncnc3ccc(-n4cnc5c(CN6CCCCC6)cccc54)nc23)c1F)c1ccccc1Cl [Ex 228] | – | 2.0% | 0.5 to 1 µM
3 | COCCCN(CCCOC)c1cccc2c1ncn2-c1ccc2ncnc(Nc3c(F)ccc(NS(=O)(=O)c4cccc(F)c4C)c3F)c2n1 [Example 384] | 1 to 10 µM | – | –
4 | Cc1c(F)cccc1S(=O)(=O)Nc1ccc(F)c(Nc2ncnc3ccc(-n4ncc5c4CCCN5C)nc23)c1F [Example 460] | 1 to 10 µM | – | –
5 | CC(=O)N1CCc2cnn(-c3ccc4ncnc(Nc5c(F)ccc(NS(=O)(=O)c6cccc(F)c6C)c5F)c4n3)c2C1 [Example 393] | 0.5 to 1 µM | – | –
6 | Cc1c(F)cccc1S(=O)(=O)Nc1ccc(F)c(Nc2ncnc3ccc(-n4cnc5c(NCCO)cccc54)nc23)c1F [Example 350] | < 0.5 µM | – | –
7 | Cc1c(F)cccc1S(=O)(=O)Nc1ccc(F)c(Nc2ncnc3ccc(-n4cc5c(n4)CCCN5C(=O)CN)nc23)c1F [Example 392] | 1 to 10 µM | – | –
8 | Cc1c(F)cccc1S(=O)(=O)Nc1ccc(F)c(Nc2ncnc3ccc(-n4cnc5c(-c6cnccc6N)cccc54)nc23)c1F [Example 420] | 1 to 10 µM | – | –
9 | O=S(=O)(Nc1ccc(F)c(Nc2ncnc3ccc(-n4cnc5c(CN6CCC6)cccc54)nc23)c1F)c1ccccc1Cl [Ex 218] | – | −6% | 0.5 to 1 µM
10 | CC(C)(CO)S(=O)(=O)c1cn(-c2ccc3ncnc(Nc4c(F)ccc(NS(=O)(=O)c5cccc(Cl)c5Cl)c4F)c3n2)c2ccccc12 [Example 447] | < 0.5 µM | – | –
11 | O=S(=O)(Nc1ccc(F)c(Nc2ncnc3ccc(-n4cnc5c(CN6CCOCC6)cccc54)nc23)c1F)c1ccccc1Cl [Ex 220] | – | −1.7% | 0.5 to 1 µM
12 | O=S(=O)(Nc1ccc(F)c(Nc2ncnc3ccc(-n4cc(CC5CCN(CC(F)F)CS5(=O)=O)c5ccccc54)nc23)c1F)c1cccc(Cl)c1Cl (centres unmarked) [Example 488] | < 0.5 µM | – | –
13 | O=S(=O)(Nc1ccc(F)c(Nc2ncnc3ccc(-n4cc(S(=O)(=O)N5CC6COCC6C5)c5ccccc54)nc23)c1F)c1cccc(Cl)c1Cl (centres unmarked) [Ex 451] | < 0.5 µM | – | –
14 | CN(CCc1ccccn1)C(=O)c1nn(-c2ccc3ncnc(Nc4c(F)ccc(NS(=O)(=O)c5cccc(Cl)c5Cl)c4F)c3n2)c2ccccc12 [Ex 370] | < 0.5 µM | – | –
15 | Cc1c(F)cccc1S(=O)(=O)Nc1ccc(F)c(Nc2ncnc3ccc(-n4cc5c(n4)CCCN5CCO)nc23)c1F [Example 340] | < 0.5 µM | – | –
16 | O=S(=O)(Nc1ccc(F)c(Nc2ncnc3ccc(-n4cc(S(=O)(=O)C5CCN(CC6CC6)CC5)c5ccccc54)nc23)c1F)c1cccc(Cl)c1Cl [Example 469] | < 0.5 µM | – | –
17 | O=S(=O)(Nc1ccc(F)c(Nc2ncnc3ccc(-n4cc(CO)c5ccccc54)nc23)c1F)c1ccccc1Cl [Ex 88] | – | −6% | 1 to 10 µM
18 | CC(=O)NCCN1CCCc2nn(-c3ccc4ncnc(Nc5c(F)ccc(NS(=O)(=O)c6cccc(F)c6C)c5F)c4n3)cc21 [Example 383] | 1 to 10 µM | – | –
19 | CC(C)N1CCC(S(=O)(=O)c2cn(-c3ccc4ncnc(Nc5c(F)ccc(NS(=O)(=O)c6cccc(Cl)c6Cl)c5F)c4n3)c3ccccc23)CC1 [Example 468] | < 0.5 µM | – | –
20 | Cc1c(F)cccc1S(=O)(=O)Nc1ccc(F)c(Nc2ncnc3ccc(-n4cc5c(n4)CCCN5C)nc23)c1F [Example 356] | < 0.5 µM | – | –
21 | O=S(=O)(CC1CCCO1)c1cn(-c2ccc3ncnc(Nc4c(F)ccc(NS(=O)(=O)c5cccc(Cl)c5Cl)c4F)c3n2)c2ccccc12 (centres unmarked) [Ex 441] | 0.5 to 1 µM | – | –
22 | Cc1c(F)cccc1S(=O)(=O)Nc1ccc(F)c(Nc2ncnc3ccc(-n4cnc5c(N(CCO)CCO)cccc54)nc23)c1F [Example 351] | < 0.5 µM | – | –
23 | CC(C)(CN1CCOCC1)S(=O)(=O)c1cn(-c2ccc3ncnc(Nc4c(F)ccc(NS(=O)(=O)c5cccc(Cl)c5Cl)c4F)c3n2)c2ccccc12 [Example 457] | < 0.5 µM | – | –

Row | SMILES | IC50 (class symbol) | HCT116 pERK Ymin % | IC50 [1]
24 | CN(C)CC(C)(C)S(=O)(=O)c1cn(-c2ccc3ncnc(Nc4c(F)ccc(NS(=O)(=O)c5cccc(Cl)c5Cl)c4F)c3n2)c2ccccc12 [Example 456] | < 0.5 µM | – | –
25 | Cc1c(F)cccc1S(=O)(=O)Nc1ccc(F)c(Nc2ncnc3ccc(-n4cnc5c(N(CCCO)CCCO)cccc54)nc23)c1F [Example 375] | < 0.5 µM | – | –
26 | Cc1c(F)cccc1S(=O)(=O)Nc1ccc(F)c(Nc2ncnc3ccc(-n4ncc5c4CCCN5CCO)nc23)c1F [Example 425] | 0.5 to 1 µM | – | –
27 | Cc1cc([N+](=O)[O-])ccc1S(=O)(=O)Nc1ccc(F)c(Nc2ncnc3ccc(-n4cnc5c(N)cccc54)nc23)c1F [Ex 368] | 1 to 10 µM | – | –
28 | Cc1c(F)cccc1S(=O)(=O)Nc1ccc(F)c(Nc2ncnc3ccc(-n4cnc(CO)c4)nc23)c1F [Ex 379] | 1 to 10 µM | – | –
29 | O=S(=O)(Nc1ccc(F)c(Nc2ncnc3ccc(-c4cscn4)nc23)c1F)c1cccc(Cl)c1Cl [Example 536] | 0.5 to 1 µM | – | –
30 | CN(C)CCCS(=O)(=O)c1cn(-c2ccc3ncnc(Nc4c(F)ccc(NS(=O)(=O)c5cccc(Cl)c5Cl)c4F)c3n2)c2ccccc12 [Example 484] | < 0.5 µM | – | –
31 | O=C1CCCCN1c1cn(-c2ccc3ncnc(Nc4c(F)ccc(NS(=O)(=O)c5cccc(Cl)c5Cl)c4F)c3n2)c2ccccc12 [Example 532] | 1 to 10 µM | – | –
32 | O=S(=O)(Nc1ccc(F)c(Nc2ncnc3ccc(-n4cnc5c(N6CC[C@@H](O)C6)nccc54)nc23)c1F)c1cccc(Cl)c1Cl [Example 512] | 1 to 10 µM | – | –
33 | CCN1CCN(S(=O)(=O)c2cn(-c3ccc4ncnc(Nc5c(F)ccc(NS(=O)(=O)c6cccc(Cl)c6Cl)c5F)c4n3)c3ccccc23)CC1 [Ex 388] | < 0.5 µM | – | –
34 | CS(=O)(=O)c1cccc2c1ncn2-c1ccc2ncnc(Nc3c(F)ccc(NS(=O)(=O)c4cccc(Cl)c4Cl)c3F)c2n1 [Example 521] | 1 to 10 µM | – | –
35 | O=S(=O)(Nc1ccc(F)c(Nc2ncnc3ccc(-n4cc(S(=O)(=O)N5CCN(CCOCCO)CC5)c5ccccc54)nc23)c1F)c1cccc(Cl)c1Cl [Ex 378] | < 0.5 µM | – | –
36 | Cc1cn(-c2ccc3ncnc(Nc4c(F)ccc(NS(=O)(=O)c5cccc(Cl)c5Cl)c4F)c3n2)cn1 [Example 553] | < 0.5 µM | – | –
37 | CN(C)C1CCN(S(=O)(=O)c2cn(-c3ccc4ncnc(Nc5c(F)ccc(NS(=O)(=O)c6cccc(Cl)c6Cl)c5F)c4n3)c3ccccc23)CC1 [Ex 387] | < 0.5 µM | – | –
38 | CCOc1nccc2c1ncn2-c1ccc2ncnc(Nc3c(F)ccc(NS(=O)(=O)c4cccc(Cl)c4Cl)c3F)c2n1 [Example 513] | 0.5 to 1 µM | – | –
39 | CC(=O)N1CCCc2nn(-c3ccc4ncnc(Nc5c(F)ccc(NS(=O)(=O)c6cccc(F)c6C)c5F)c4n3)cc21 [Example 357] | 0.5 to 1 µM | – | –
40 | O=C(c1cn(-c2ccc3ncnc(Nc4c(F)ccc(NS(=O)(=O)c5cccc(Cl)c5Cl)c4F)c3n2)c2ccccc12)C1CCOC1 (centres unmarked) [Example 500] | 1 to 10 µM | – | –
41 | Cc1c(F)cccc1S(=O)(=O)Nc1ccc(F)c(Nc2ncnc3ccc(-n4cc5c(n4)CCCN5CCN)nc23)c1F [Example 362] | 1 to 10 µM | – | –
42 | CNCC(C)(C)S(=O)(=O)c1cn(-c2ccc3ncnc(Nc4c(F)ccc(NS(=O)(=O)c5cccc(Cl)c5Cl)c4F)c3n2)c2ccccc12 [Example 461] | < 0.5 µM | – | –
43 | O=S(=O)(Nc1ccc(F)c(Nc2ncnc3ccc(-n4cnc5c4CCCC5)nc23)c1F)c1cccc(Cl)c1Cl [Ex 463] | 0.5 to 1 µM | – | –
44 | O=S(=O)(Nc1ccc(F)c(Nc2ncnc3ccc(-n4cc(S(=O)(=O)N5CC(O)C5)c5ccccc54)nc23)c1F)c1cccc(Cl)c1Cl [Ex 455] | < 0.5 µM | – | –
45 | C[C@@H]1CN(C)C[C@H](C)N1S(=O)(=O)c1cn(-c2ccc3ncnc(Nc4c(F)ccc(NS(=O)(=O)c5cccc(Cl)c5Cl)c4F)c3n2)c2ccccc12 [Ex 459] | < 0.5 µM | – | –
46 | CC(C)(CC(F)F)S(=O)(=O)c1cn(-c2ccc3ncnc(Nc4c(F)ccc(NS(=O)(=O)c5cccc(Cl)c5Cl)c4F)c3n2)c2ccccc12 [Example 499] | < 0.5 µM | – | –
